Test results as given in patent US8741906B2 (priority 2011, dated 2014).

Columns and labels:
[1] = molecular target: T1, human CB2 receptors (Homo sapiens, UniProt P34972); experiment: functional cAMP assay, human CB2; type: cell-based; settings: CHO cells expressing human CB2, cAMP; read-out: human CB2 EC50
T1 construct: expressed in transfected cells; host or cells: CHO cells
Method: (§1) CHO cells expressing human CB1 or CB2 receptors are seeded 17-24 hours prior to the experiment 50.000 cells per well in a black 96 well plate with flat clear bottom (Corning Costar #3904) in DMEM (Invitrogen No. 31331), 1×HT supplement, with 10% fetal calf serum and incubated at 5% CO2 and 37° C. in a humidified incubator. The growth medium was exchanged with Krebs Ringer Bicarbonate buffer with 1 mM IBMX and incubated at 30° C. for 30 min. Compounds were added to a final assay volume of 100 μl and incubated for 30 min at 30° C. Using the cAMP-Nano-TRF detection kit the assay (Roche Diagnostics) was stopped by the addition of 50 μl lysis reagent (Tris, NaCl, 1.5% Triton X100, 2.5% NP40, 10% NaN3) and 50 μl detection solutions (20 μM mAb Alexa700-cAMP 1:1, and 48 μM Ruthenium-2-AHA-cAMP) and shaken for 2 h at room temperature. The time-resolved energy transfer is measured by a TRF reader (Evotec Technologies GmbH), equipped with a ND:YAG laser as excitation source. The plate is measured twice with the excitation at 355 nm and at the emission with a delay of 100 ns and a gate of 100 ns, total exposure time 10 s at 730 (bandwidth 30 nm) or 645 nm (bandwidth 75 nm), respectively. The FRET signal is calculated as follows: FRET=T730-Alexa730-P(T645-B645) with P=Ru730-B730/Ru645-B645, where T730 is the test well measured at 730 nM, T645 is the test well measured at 645 nm, B730 and B645 are the buffer controls at 730 nm and 645 nm, respectively. cAMP content is determined from the function of a standard curve spanning from 10 μM to 0.13 nM cAMP.
(§2) EC50 values were determined using Activity Base analysis (ID Business Solution, Limited). The EC50 values for a wide range of cannabinoid agonists generated from this assay were in agreement with the values published in the scientific literature.

[2] = molecular target: T2, human CB1 receptors (Homo sapiens, UniProt P21554); experiment: functional cAMP assay, human CB1; type: cell-based; settings: CHO cells expressing human CB1, cAMP; read-out: human CB1 EC50
T2 construct: expressed in transfected cells; host or cells: CHO cells
Method: as §1, §2

T2 sequence (P21554 whole entry): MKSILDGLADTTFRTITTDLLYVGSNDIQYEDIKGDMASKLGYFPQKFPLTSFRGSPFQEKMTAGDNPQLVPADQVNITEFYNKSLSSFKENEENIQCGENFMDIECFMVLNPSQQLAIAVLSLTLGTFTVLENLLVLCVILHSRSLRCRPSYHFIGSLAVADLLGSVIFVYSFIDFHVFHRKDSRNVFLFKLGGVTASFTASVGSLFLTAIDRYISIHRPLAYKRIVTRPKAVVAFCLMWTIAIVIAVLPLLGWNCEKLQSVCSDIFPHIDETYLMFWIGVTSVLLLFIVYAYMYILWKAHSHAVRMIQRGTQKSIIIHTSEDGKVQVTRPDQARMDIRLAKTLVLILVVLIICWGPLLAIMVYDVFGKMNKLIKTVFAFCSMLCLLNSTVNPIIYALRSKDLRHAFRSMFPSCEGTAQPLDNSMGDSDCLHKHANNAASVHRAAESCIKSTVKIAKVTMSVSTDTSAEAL
T1 sequence (P34972 whole entry): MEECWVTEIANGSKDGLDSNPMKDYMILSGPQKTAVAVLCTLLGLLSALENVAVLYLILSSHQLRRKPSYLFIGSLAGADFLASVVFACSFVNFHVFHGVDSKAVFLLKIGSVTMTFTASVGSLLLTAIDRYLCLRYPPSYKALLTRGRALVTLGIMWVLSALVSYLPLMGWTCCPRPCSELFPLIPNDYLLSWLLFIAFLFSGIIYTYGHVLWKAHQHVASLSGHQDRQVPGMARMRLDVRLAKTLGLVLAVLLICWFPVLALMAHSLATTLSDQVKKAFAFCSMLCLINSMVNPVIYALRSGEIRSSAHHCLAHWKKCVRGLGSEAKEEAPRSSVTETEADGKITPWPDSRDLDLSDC

| SMILES | EC50 [1] | EC50 [2] |
| --- | --- | --- |
| CC(C)(C)c1nc(N2CC[C@H](O)[C@@H]2CO)c2nnn(Cc3ccccc3Cl)c2n1 [Example 51, (2S,3S)-1-[5-tert-Butyl-3-(2-chloro-benzyl)-3H-[1,2,3]triazolo[4,5-d]pyrimidin-7-yl]-2-hydroxymethyl-pyrrolidin-3-ol] | 2.4 nM | > 10000 nM |
| CC(C)(C)c1nc(N2CC[C@@H](O)[C@@H]2CO)c2nnn(Cc3ccccc3Cl)c2n1 [Example 52, (2S,3R)-1-[5-tert-Butyl-3-(2-chloro-benzyl)-3H-[1,2,3]triazolo[4,5-d]pyrimidin-7-yl]-2-hydroxymethyl-pyrrolidin-3-ol] | 20.8 nM | > 10000 nM |
| CC(C)(C)c1nc(N2CCCC23COC3)c2nnn(Cc3ccccc3Cl)c2n1 [Example 53, 5-tert-Butyl-3-(2-chloro-benzyl)-7-(2-oxa-5-aza-spiro[3.4]oct-5-yl)-3H-[1,2,3]triazolo[4,5-d]pyrimidine] | 15 nM | > 10000 nM |
| CC1(O)CCN(c2nc(C(C)(C)C)nc3c2nnn3Cc2ccccc2Cl)C1 (stereo not shown) [Example 54, 1-[5-tert-Butyl-3-(2-chloro-benzyl)-3H-[1,2,3]triazolo[4,5-d]pyrimidin-7-yl]-3-methyl-pyrrolidin-3-ol] | 2.8 nM | > 10000 nM |
| CC(C)(C)c1nc(N2C[C@@H](O)[C@@H](O)C2)c2nnn(Cc3ccccc3Cl)c2n1 [Example 56, (3S,4R)-1-[5-tert-Butyl-3-(2-chloro-benzyl)-3H-[1,2,3]triazolo[4,5-d]pyrimidin-7-yl]-pyrrolidine-3,4-diol] | 16.5 nM | > 10000 nM |
| COc1ccc(Cn2nnc3c(N4CCOCC4)nc(C(C)(C)C)nc32)cc1 [Example 57, 5-tert-Butyl-3-(4-methoxy-benzyl)-7-morpholin-4-yl-3H-[1,2,3]triazolo[4,5-d]pyrimidine] | 12.3 nM | > 10000 nM |
| CC(C)(C)c1nc(N2CCOCC2)c2nn[nH]c2n1 [Example 58] | 337 nM | > 10000 nM |
| CC(C)(C)c1nc(N2CCOCC2)c2nnn(Cc3ccc(F)cc3Cl)c2n1 [Example 59, 5-tert-Butyl-3-(2-chloro-4-fluoro-benzyl)-7-morpholin-4-yl-3H-[1,2,3]triazolo[4,5-d]pyrimidine] | 2.3 nM | > 10000 nM |
| COc1ccc(Cn2nnc3c(N4CCC(F)(F)C4)nc(C(C)(C)C)nc32)cc1 [Example 60, 5-tert-Butyl-7-(3,3-difluoro-pyrrolidin-1-yl)-3-(4-methoxy-benzyl)-3H-[1,2,3]triazolo[4,5-d]pyrimidine] | 2.5 nM | > 10000 nM |
| CCn1nnc2c(N3CCC(F)(F)C3)nc(C(C)(C)C)nc21 [Example 61, 5-tert-butyl-7-(3,3-difluoropyrrolidin-1-yl)-3-ethyl-3H-[1,2,3]triazolo[4,5-d]pyrimidine] | 13.2 nM | > 10000 nM |
| COCCn1nnc2c(N3CCC(F)(F)C3)nc(C(C)(C)C)nc21 [Example 62, 5-tert-Butyl-7-(3,3-difluoro-pyrrolidin-1-yl)-3-(2-methoxy-ethyl)-3H-[1,2,3]triazolo[4,5-d]pyrimidine] | 3.3 nM | > 10000 nM |
| CC(C)(C)c1nc(N2CCC(F)(F)C2)c2nnn(CCO)c2n1 [Example 63, 2-[5-tert-Butyl-7-(3,3-difluoro-pyrrolidin-1-yl)-[1,2,3]triazolo[4,5-d]pyrimidin-3-yl]-ethanol] | 18.2 nM | > 10000 nM |
| CC(C)(C)c1nc(N2CCC(F)(F)C2)c2nnn(CC3CCCCC3)c2n1 [Example 64, 5-tert-Butyl-3-cyclohexylmethyl-7-(3,3-difluoro-pyrrolidin-1-yl)-3H-[1,2,3]triazolo[4,5-d]pyrimidine] | 2.3 nM | > 10000 nM |
| CC(C)(C)c1nc(N2CCC(F)(F)C2)c2nnn(Cc3cccc(Cl)c3)c2n1 [Example 65, 5-tert-Butyl-3-(3-chloro-benzyl)-7-(3,3-difluoro-pyrrolidin-1-yl)-3H-[1,2,3]triazolo[4,5-d]pyrimidine] | 0.9 nM | 220 nM |
| CC(C)(C)c1nc(N2CCC(F)(F)C2)c2nnn(Cc3ccc(Cl)cc3)c2n1 [Example 66, 5-tert-Butyl-3-(4-chloro-benzyl)-7-(3,3-difluoro-pyrrolidin-1-yl)-3H-[1,2,3]triazolo[4,5-d]pyrimidine] | 2 nM | > 10000 nM |
| CC(C)(C)c1nc(N2CCC(F)(F)C2)c2nnn(Cc3cccc(Cl)c3Cl)c2n1 [Example 67, 5-tert-Butyl-3-(2,3-dichloro-benzyl)-7-(3,3-difluoro-pyrrolidin-1-yl)-3H-[1,2,3]triazolo[4,5-d]pyrimidine] | 0.2 nM | 162 nM |
| CC(C)(C)c1nc(N2CCC(F)(F)C2)c2nnn(Cc3ccc(Cl)cc3Cl)c2n1 [Example 68, 5-tert-Butyl-3-(2,4-dichloro-benzyl)-7-(3,3-difluoro-pyrrolidin-1-yl)-3H-[1,2,3]triazolo[4,5-d]pyrimidine] | 0.7 nM | > 10000 nM |
| CC(C)(C)c1nc(N2CCC(F)(F)C2)c2nnn(Cc3cc(Cl)ccc3Cl)c2n1 [Example 69, 5-tert-Butyl-3-(2,5-dichloro-benzyl)-7-(3,3-difluoro-pyrrolidin-1-yl)-3H-[1,2,3]triazolo[4,5-d]pyrimidine] | 0.3 nM | 276 nM |
| CC(C)(C)c1nc(N2CCC(F)(F)C2)c2nnn(Cc3c(Cl)cccc3Cl)c2n1 [Example 70, 5-tert-Butyl-3-(2,6-dichloro-benzyl)-7-(3,3-difluoro-pyrrolidin-1-yl)-3H-[1,2,3]triazolo[4,5-d]pyrimidine] | 0.1 nM | 50.8 nM |
| CC(C)(C)c1nc(N2CCC(F)(F)C2)c2nnn(Cc3ccc(F)cc3Cl)c2n1 [Example 71, 5-tert-Butyl-3-(2-chloro-4-fluoro-benzyl)-7-(3,3-difluoro-pyrrolidin-1-yl)-3H-[1,2,3]triazolo[4,5-d]pyrimidine] | 0.4 nM | > 10000 nM |
| CC(C)(C)c1nc(N2CCC(F)(F)C2)c2nnn(Cc3c(F)cccc3Cl)c2n1 [Example 72, 5-tert-Butyl-3-(2-chloro-6-fluoro-benzyl)-7-(3,3-difluoro-pyrrolidin-1-yl)-3H-[1,2,3]triazolo[4,5-d]pyrimidine] | 0.1 nM | 41 nM |
| CC(C)(C)c1nc(N2CCC(F)(F)C2)c2nnn(Cc3ccccn3)c2n1 [Example 73, 5-tert-Butyl-7-(3,3-difluoro-pyrrolidin-1-yl)-3-pyridin-2-ylmethyl-3H-[1,2,3]triazolo[4,5-d]pyrimidine] | 0.1 nM | 60.9 nM |
| CC(C)(C)c1nc(N2CCC(F)(F)C2)c2nnn(Cc3cccnc3)c2n1 [Example 74, 5-tert-Butyl-7-(3,3-difluoro-pyrrolidin-1-yl)-3-pyridin-3-ylmethyl-3H-[1,2,3]triazolo[4,5-d]pyrimidine] | 0.1 nM | 55.9 nM |
| CC(C)(C)c1nc(N2CCC(F)(F)C2)c2nnn(Cc3ccncc3)c2n1 [Example 75, 5-tert-Butyl-7-(3,3-difluoro-pyrrolidin-1-yl)-3-pyridin-4-ylmethyl-3H-[1,2,3]triazolo[4,5-d]pyrimidine] | 0.2 nM | 97.8 nM |
| CC(C)(C)c1nc(N2CCC(F)(F)C2)c2nnn(CC(F)(F)F)c2n1 [Example 76, 5-tert-Butyl-7-(3,3-difluoro-pyrrolidin-1-yl)-3-(2,2,2-trifluoro-ethyl)-3H-[1,2,3]triazolo[4,5-d]pyrimidine] | 2.3 nM | > 10000 nM |
| CC(C)(C)c1nc(N2CCC(F)(F)C2)c2nnn(Cc3cc(F)c(F)cc3Cl)c2n1 [Example 77, 5-tert-Butyl-3-(2-chloro-4,5-difluoro-benzyl)-7-(3,3-difluoro-pyrrolidin-1-yl)-3H-[1,2,3]triazolo[4,5-d]pyrimidine] | 0.8 nM | > 10000 nM |
| CC(C)(C)c1nc(N2CCC(F)(F)C2)c2nnn(Cc3c(F)ccc(F)c3Cl)c2n1 [Example 78, 5-tert-Butyl-3-(2-chloro-3,6-difluoro-benzyl)-7-(3,3-difluoro-pyrrolidin-1-yl)-3H-[1,2,3]triazolo[4,5-d]pyrimidine] | 0.1 nM | 143 nM |
| CC(C)(C)c1nc(N2CCC(F)(F)C2)c2nnn(Cc3ccccc3Br)c2n1 [Example 79, 3-(2-Bromo-benzyl)-5-tert-butyl-7-(3,3-difluoro-pyrrolidin-1-yl)-3H-[1,2,3]triazolo[4,5-d]pyrimidine] | 0.1 nM | 82.3 nM |
| CC(C)(C)c1nc(N2CCC(F)(F)C2)c2nnn(Cc3ccccc3C(F)(F)F)c2n1 [Example 80, 5-tert-Butyl-7-(3,3-difluoro-pyrrolidin-1-yl)-3-(2-trifluoromethyl-benzyl)-3H-[1,2,3]triazolo[4,5-d]pyrimidine] | 0.3 nM | 69.3 nM |
